Results: the supplement of paper PMC9386025

Key:
Assay in all cases: drug sensitivity score (DSS) (DSS (dimensionless)); higher = more sensitive (stronger drug response)
FIMM-PDC1 = patient-derived ovarian cancer cells; details: genetic perturbation: none (patient-derived cell culture)
Summary of the method: (§1)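 Ovarian cancer cell lines with shRNA induced by 100 ng/ml doxycycline for at least three days, along with patient-derived cultures, were seeded at 1 000 – 1 500 cells per well onto drugs pre-plated in 384-well plates at five concentrations over a 10,000-fold range and incubated for three days at 37 °C and 5.0 % CO2. CellTiter-Glo luminescence measured on a PHERAstar FS served as the viability readout, and each drug's dose-response curve was summarised as a drug sensitivity score following an earlier published method.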

FIMM-PDC3 = patient-derived ovarian cancer cells; details: genetic perturbation: none (patient-derived cell culture)
Summary of the method: as §1

FIMM-PDC4 = patient-derived ovarian cancer cells; details: genetic perturbation: none (patient-derived cell culture)
Summary of the method: as §1

FIMM-PDC5 = patient-derived ovarian cancer cells; details: genetic perturbation: none (patient-derived cell culture)
Summary of the method: as §1

FIMM-PDC6 = patient-derived ovarian cancer cells; details: genetic perturbation: none (patient-derived cell culture)
Summary of the method: as §1

FIMM-PDC7 = patient-derived ovarian cancer cells; details: genetic perturbation: none (patient-derived cell culture)
Summary of the method: as §1

JHOS2 = test system: JHOS2
Summary of the method: as §1

Kuramochi = test system: Kuramochi
Summary of the method: as §1

OVSAHO = test system: OVSAHO
Summary of the method: as §1

[1] = genetic perturbation: DOX-induced PTK7 shRNA knockdown
[2] = genetic perturbation: DOX-induced control shRNA

SMILES | drug sensitivity score (FIMM-PDC1) | drug sensitivity score (FIMM-PDC3) | drug sensitivity score (FIMM-PDC4) | drug sensitivity score (FIMM-PDC5) | drug sensitivity score (FIMM-PDC6) | drug sensitivity score (FIMM-PDC7) | drug sensitivity score (JHOS2; [1]) | drug sensitivity score (JHOS2; [2]) | drug sensitivity score (Kuramochi; [1]) | drug sensitivity score (Kuramochi; [2]) | drug sensitivity score (OVSAHO; [1]) | drug sensitivity score (OVSAHO; [2])
NC(=O)Nc1cc(-c2cccc(F)c2)sc1C(=O)N[C@H]1CCCNC1 [AZD7762] | 7.75 | 9.1 | 8.1 | 7 | 6.4 | 5.8 | 7.6 | 4.6 | 6 | 2.9 | 6.4 | 3.1
CO[C@H]1C[C@@H]2CC[C@@H](C)[C@@](O)(O2)C(=O)C(=O)N2CCCC[C@H]2C(=O)O[C@H]([C@H](C)C[C@@H]2CC[C@@H](OCCO)[C@H](OC)C2)CC(=O)[C@H](C)/C=C(\C)[C@@H](O)[C@@H](OC)C(=O)[C@H](C)C[C@H](C)/C=C/C=C/C=C/1C [Everolimus] | < 0 | 2.7 | 5.3 | 8.3 | < 0 | 0.4 | < 0 | 3 | 4.1 | 2.2 | 0.9 | 6.2
COc1cccc(OCCCN)c1-c1cc(Nc2cnc(C#N)cn2)n[nH]1 [Prexasertib] | 22.6 | 27.1 | 19.2 | 24.3 | 15.4 | 14.3 | 23.3 | 7.3 | 22.4 | 8.8 | 17.4 | 11.1
CCN(CC)CCOc1ccc(C(=C(Cl)c2ccccc2)c2ccccc2)cc1 [Clomifene] | 7.05 | 5.7 | 7.5 | 8 | 5.2 | 7 | 6.9 | 4.1 | 5.45 | 2 | 5.2 | 4.2
CC[C@]1(O)C[C@@H]2CN(CCc3c([nH]c4ccccc34)[C@@](C(=O)OC)(c3cc4c(cc3OC)N(C)[C@H]3[C@@](O)(C(=O)OC)[C@H](OC(C)=O)[C@]5(CC)C=CCN6CC[C@]43[C@@H]65)C2)C1 [Vinblastine] | 15.3 | 13 | 7.6 | 8.2 | 0.7 | 8.9 | 3.7 | 9.7 | 2.8 | 3.9 | 2 | 9
COc1ccc(S(=O)(=O)Nc2cccnc2Nc2ccc(O)cc2)cc1 [ABT-751] | 8.8 | 9.7 | 9.6 | 11.8 | 5.1 | 6.8 | 10.2 | 6.3 | 7.95 | 3.6 | 7 | 5.4
C1=N/C2=N/c3ccc(OCCN4CCCC4)c(c3)COC/C=C/COCc3cccc(c3)C(=C1)N2 [Pacritinib] | 6.7 | 7.7 | 7.6 | 10.6 | 7.5 | 5 | 9.3 | 10.9 | 7.05 | 9.3 | 10.1 | 9.6
CN[C@@H](C)C(=O)N[C@H](C(=O)N1CCC[C@H]1c1nc(C(=O)c2ccc(F)cc2)cs1)C1CCCCC1 [NVP-LCL161] | 14.1 | 15.7 | 1.7 | 2.7 | 6.9 | 5.1 | 26 | 20.4 | 3.65 | 4.2 | 6 | 4.1
CNC(=O)c1nn(C)c2c1C(C)(C)Cc1cnc(Nc3ccc(N4CCN(C)CC4)cc3)nc1-2 [Milciclib] | 12.7 | 9.9 | 8.2 | 10.9 | 9.1 | 7.9 | 6.3 | 12.4 | 10.3 | 8 | 8.1 | 9
Cc1cc2c(C(=O)NC[C@H](C)c3ccccc3)c(O)c(O)cc2c(O)c1-c1c(C)cc2c(C(=O)NC[C@H](C)c3ccccc3)c(O)c(O)cc2c1O [Sabutoclax] | 4.75 | 11.8 | 6.9 | 5.2 | 6.4 | 3.8 | 11.1 | 10.8 | 7.8 | 6.8 | 4.7 | 6.5
COc1cc(Br)c(Nc2nc(-c3c(C)nc4ncccn34)cs2)c(Br)c1 [PTC-209] | 6.1 | 10 | 2.2 | 4.6 | 4.3 | 6.3 | 3.7 | 9.7 | 3 | 1.5 | 1.5 | 2.3
Cc1nc(-c2cn3c(n2)-c2ccc(-c4cnn(C(C)(C)C(N)=O)c4)cc2OCC3)n(C(C)C)n1 [Taselisib] | 4.2 | 6.7 | 9.5 | 11.6 | 6.3 | 12.3 | 4.3 | 2.4 | 4.5 | 1.1 | 3.1 | 4.7
Nc1cc(C(F)(F)F)c(-c2cc(N3CCOCC3)nc(N3CCOCC3)n2)cn1 [Buparlisib] | 5.4 | 7.1 | 9.7 | 12.2 | 7.8 | 10.8 | 6.4 | 4.6 | 7.25 | 4.6 | 7.2 | 6.6
